Measured values published in patent US10344014B2, “Amorphous form of tetracyclic compound” (Chugai Seiyaku Kabushiki Kaisha, priority 2014, dated 2019).

Tests used:
Type in all cases: physicochemical
[1] = Stability test of the amorphous form, X-ray powder diffraction after storage (Example 4); design: key to State of the amorphous form after storage (X-ray powder diffraction peak): ◯: no peak of diffraction angle; X: clear peak of diffraction angle
Experimental: The amorphous form of 9-ethyl-6,6-dimethyl-8-(4-morpholin-4-yl-piperidin-1-yl)-11-oxo-6,11-dihydro-5H-benzo[b]carbazole-3-carbonitrilemonohydrochloride was stored under a certain condition and transition of the state of the amorphous form of the test compound was analyzed using. X-ray power diffraction as in the Test example 1.

[2] = Solubility by shake flask method, 37° C. (Example 6)
Experimental: Solubility of the amorphous form and form I crystals of 9-ethyl-6,6-dimethyl-8-(4-morpholin-4-yl-piperidin-1-yl)-11-oxo-6,11-dihydro-5H-benzo[b]carbazole-3-carbonitrilemonohydrochloride was examined using a shake flask method (37° C.).

[3] = Solubility of compound A (form I crystals) in solvents (Example 2)
Experimental: Solubility of 9-ethyl-6,6-dimethyl-8-(4-morpholin-4-yl-piperidin-1-yl)-11-oxo-6,11-dihydro-5H-benzo[b]carbazole-3-carbonitrilemonohydrochloride (hereinafter, a compound A) to each solvent was evaluated.
5 mL of each of the solvents described in Table 5 was added to 5 mg of form I crystals of the compound A. When undissolved crystals were observed, the mixture was stirred at room temperature and the crystals were dissolved using ultrasound (step 1). After the processing described, when undissolved crystals were observed the mixture was further stirred in a water bath at about 50° C. (step 2).
When the crystals were dissolved completely, the form I crystals of the compound A were further added (step 3).
The procedure of the steps 1 to 3 was repeated.
For CH2Cl2, the step 2 and the later step were performed at room temperature.

[4] = Acetate buffer pH 4.5, equilibration 1 hour
[5] = Acetate buffer pH 4.5, equilibration 24 hours, limit of quantitation 0.0004 mg/mL
[6] = First solution for dissolution test (Japanese Pharmacopoeia, 16th edition), equilibration 1 hour
[7] = First solution for dissolution test (Japanese Pharmacopoeia, 16th edition), equilibration 24 hours
[8] = Phosphate buffer pH 8.0, equilibration 1 hour, limit of quantitation 0.0004 mg/mL
[9] = Phosphate buffer pH 8.0, equilibration 24 hours, limit of quantitation 0.0004 mg/mL
[10] = Simulated intestinal fluid (SIFsp), equilibration 1 hour, limit of quantitation 0.0004 mg/mL
[11] = Simulated intestinal fluid (SIFsp), equilibration 24 hours, limit of quantitation 0.0004 mg/mL
[12] = Solution for dissolution test (4% Triton-X100 added to the first solution for dissolution test), equilibration 1 hour
[13] = Solution for dissolution test (4% Triton-X100 added to the first solution for dissolution test), equilibration 24 hours

CCc1cc2c(cc1N1CCC(N3CCOCC3)CC1)C(C)(C)c1[nH]c3cc(C#N)ccc3c1C2=O.Cl [Amorphous, 9-ethyl-6,6-dimethyl-8-(4-morpholin-4-yl-piperidin-1-yl)-11-oxo-6,11-dihydro-5H-benzo[b]carbazole-3-carbonitrilemonohydrochloride]
Physical stability in accelerated test (in words) ([1]; 6 months, 40° C. and 75% RH, sealed condition): hardly crystallized and physically stable
Physical stability in long-term stability test (in words) ([1]; 12 months, 30° C. and 75% RH, sealed condition): hardly crystallized and physically stable
State of the amorphous form after storage (X-ray powder diffraction peak) ([1]; 25° C./93% RH, Open, 1 month): X
State of the amorphous form after storage (X-ray powder diffraction peak) ([1]; 25° C./93% RH, Open, 3 months): X
State of the amorphous form after storage (X-ray powder diffraction peak) ([1]; 25° C./93% RH, Open, 6 months): X
State of the amorphous form after storage (X-ray powder diffraction peak) ([1]; 30° C./75% RH, Sealed, 3 months): ◯
State of the amorphous form after storage (X-ray powder diffraction peak) ([1]; 30° C./75% RH, Sealed, 6 months): ◯
State of the amorphous form after storage (X-ray powder diffraction peak) ([1]; 30° C./75% RH, Sealed, 12 months): ◯
State of the amorphous form after storage (X-ray powder diffraction peak) ([1]; 40° C./75% RH, Sealed, 1 month): ◯
State of the amorphous form after storage (X-ray powder diffraction peak) ([1]; 40° C./75% RH, Sealed, 3 months): ◯
State of the amorphous form after storage (X-ray powder diffraction peak) ([1]; 40° C./75% RH, Sealed, 6 months): ◯
Solubility [2, 4]: 0.5 µg/mL
Solubility [2, 5]: 0.4 µg/mL
Solubility [2, 6]: 4.5 µg/mL
Solubility [2, 7]: 2.5 µg/mL
Solubility [2, 8]: <Lower than limit of
Solubility [2, 9]: <Lower than limit of
Solubility [2, 10]: <Lower than limit of
Solubility [2, 11]: <Lower than limit of
Solubility [2, 12]: 1150.6 µg/mL
Solubility [2, 13]: 1155.2 µg/mL
Solubility ([2]; Water, equilibration 1 hour): 59.9 µg/mL
Solubility ([2]; Water, equilibration 24 hours): 39.3 µg/mL
Solubility compared with form I crystals (in words) ([2]; shake flask method): higher than that of the form I crystals

CCc1cc2c(cc1N1CCC(N3CCOCC3)CC1)C(C)(C)c1[nH]c3cc(C#N)ccc3c1C2=O.Cl [Form I crystal, 9-ethyl-6,6-dimethyl-8-(4-morpholin-4-yl-piperidin-1-yl)-11-oxo-6,11-dihydro-5H-benzo[b]carbazole-3-carbonitrilemonohydrochloride]
Solubility [2, 4]: 0.4 µg/mL
Solubility [2, 5]: <Lower than limit of
Solubility [2, 6]: 1.2 µg/mL
Solubility [2, 7]: 1.3 µg/mL
Solubility [2, 8]: <Lower than limit of
Solubility [2, 9]: <Lower than limit of
Solubility [2, 10]: <Lower than limit of
Solubility [2, 11]: <Lower than limit of
Solubility [2, 12]: 364.1 µg/mL
Solubility [2, 13]: 410.2 µg/mL
Solubility ([2]; Water, equilibration 1 hour): 28.6 µg/mL
Solubility ([2]; Water, equilibration 24 hours): 25.1 µg/mL

CCc1cc2c(cc1N1CCC(N3CCOCC3)CC1)C(C)(C)c1[nH]c3cc(C#N)ccc3c1C2=O.Cl [compound A, 9-ethyl-6,6-dimethyl-8-(4-morpholin-4-yl-piperidin-1-yl)-11-oxo-6,11-dihydro-5H-benzo[b]carbazole-3-carbonitrilemonohydrochloride]
Solubility of compound A in solvent (dissolved or not) ([3]; 1,4-dioxane, 1 mg/mL, about 50° C. while stirring): N/N (N: not dissolved)
Solubility of compound A in solvent (dissolved or not) ([3]; 1,4-dioxane, 1 mg/mL, room temperature): N/N (N: not dissolved)
Solubility of compound A in solvent (dissolved or not) ([3]; 70% EtOH, 1 mg/mL, room temperature): Y/— (Y: dissolved)
Solubility of compound A in solvent (dissolved or not) ([3]; 70% EtOH, 2 mg/mL, room temperature): Y/— (Y: dissolved)
Solubility of compound A in solvent (dissolved or not) ([3]; 70% EtOH, 4 mg/mL, room temperature): Y/— (Y: dissolved)
Solubility of compound A in solvent (dissolved or not) ([3]; 70% EtOH, 6 mg/mL, about 50° C. while stirring): Y (Y: dissolved)
Solubility of compound A in solvent (dissolved or not) ([3]; 70% EtOH, 6 mg/mL, room temperature): N (N: not dissolved)
Solubility of compound A in solvent (dissolved or not) ([3]; 70% MeCN, 1 mg/mL, room temperature): Y/— (Y: dissolved)
Solubility of compound A in solvent (dissolved or not) ([3]; 70% MeCN, 2 mg/mL, room temperature): Y/— (Y: dissolved)
Solubility of compound A in solvent (dissolved or not) ([3]; 70% MeCN, 4 mg/mL, room temperature): Y/— (Y: dissolved)
Solubility of compound A in solvent (dissolved or not) ([3]; 70% MeCN, 6 mg/mL, room temperature): Y/— (Y: dissolved)
Solubility of compound A in solvent (dissolved or not) ([3]; 70% MeCN, 8 mg/mL, room temperature): Y/— (Y: dissolved)
Solubility of compound A in solvent (dissolved or not) ([3]; 70% MeCN, 10 mg/mL, about 50° C. while stirring, *formation of solids was observed inside the test tube): Y (Y: dissolved)
Solubility of compound A in solvent (dissolved or not) ([3]; 70% MeCN, 10 mg/mL, room temperature): N (N: not dissolved)
Solubility of compound A in solvent (dissolved or not) ([3]; 70% MeOH, 1 mg/mL, room temperature): Y/— (Y: dissolved)
Solubility of compound A in solvent (dissolved or not) ([3]; 70% MeOH, 2 mg/mL, room temperature): Y/— (Y: dissolved)
Solubility of compound A in solvent (dissolved or not) ([3]; 70% MeOH, 4 mg/mL, about 50° C. while stirring): Y (Y: dissolved)
Solubility of compound A in solvent (dissolved or not) ([3]; 70% MeOH, 4 mg/mL, room temperature): N (N: not dissolved)
Solubility of compound A in THF (dissolved or not) ([3]; 70% THF, 1 mg/mL, room temperature): Y/— (Y: dissolved)
Solubility of compound A in THF (dissolved or not) ([3]; 70% THF, 6 mg/mL, room temperature): Y/— (Y: dissolved)
Solubility of compound A in THF (dissolved or not) ([3]; 70% THF, 8 mg/mL, room temperature): Y/— (Y: dissolved)
Solubility of compound A in THF (dissolved or not) ([3]; 70% THF, 10 mg/mL, room temperature): Y/— (Y: dissolved)
Solubility of compound A in THF (dissolved or not) ([3]; 70% THF, 12 mg/mL, room temperature): Y/— (Y: dissolved)
Solubility of compound A in THF (dissolved or not) ([3]; 70% THF, 14 mg/mL, room temperature): Y/— (Y: dissolved)
Solubility of compound A in solvent (dissolved or not) ([3]; 70% acetone, 1 mg/mL, room temperature): Y/— (Y: dissolved)
Solubility of compound A in solvent (dissolved or not) ([3]; 70% acetone, 2 mg/mL, room temperature): Y/— (Y: dissolved)
Solubility of compound A in solvent (dissolved or not) ([3]; 70% acetone, 4 mg/mL, room temperature): Y/— (Y: dissolved)
Solubility of compound A in solvent (dissolved or not) ([3]; 70% acetone, 6 mg/mL, room temperature): Y/— (Y: dissolved)
Solubility of compound A in solvent (dissolved or not) ([3]; 70% acetone, 8 mg/mL, about 50° C. while stirring): Y (Y: dissolved)
Solubility of compound A in solvent (dissolved or not) ([3]; 70% acetone, 8 mg/mL, room temperature): N (N: not dissolved)
Solubility of compound A in THF (dissolved or not) ([3]; 80% THF, 1 mg/mL, room temperature): Y/— (Y: dissolved)
Solubility of compound A in THF (dissolved or not) ([3]; 80% THF, 4 mg/mL, room temperature): Y/— (Y: dissolved)
Solubility of compound A in THF (dissolved or not) ([3]; 80% THF, 6 mg/mL, room temperature): Y/— (Y: dissolved)
Solubility of compound A in THF (dissolved or not) ([3]; 80% THF, 8 mg/mL, room temperature): Y/— (Y: dissolved)
Solubility of compound A in THF (dissolved or not) ([3]; 80% THF, 10 mg/mL, room temperature): Y/— (Y: dissolved)
Solubility of compound A in THF (dissolved or not) ([3]; 80% THF, 12 mg/mL, room temperature): Y/— (Y: dissolved)
Solubility of compound A in THF (dissolved or not) ([3]; 90% THF, 1 mg/mL, room temperature): Y/— (Y: dissolved)
Solubility of compound A in THF (dissolved or not) ([3]; 90% THF, 3 mg/mL, room temperature): Y/— (Y: dissolved)
Solubility of compound A in THF (dissolved or not) ([3]; 90% THF, 5 mg/mL, about 50° C. while stirring): N/N (N: not dissolved)
Solubility of compound A in THF (dissolved or not) ([3]; 90% THF, 5 mg/mL, room temperature): N/N (N: not dissolved)
Solubility of compound A in THF (dissolved or not) ([3]; 100% THF, 1 mg/mL, about 50° C. while stirring): N/N (N: not dissolved)
Solubility of compound A in THF (dissolved or not) ([3]; 100% THF, 1 mg/mL, room temperature): N/N (N: not dissolved)
Solubility of compound A in solvent (dissolved or not) ([3]; CH2Cl2, 1 mg/mL, room temperature): N/— (N: not dissolved)
Solubility of compound A in solvent (dissolved or not) ([3]; DMSO, 1 mg/mL, room temperature): Y/— (Y: dissolved)
Solubility of compound A in solvent (dissolved or not) ([3]; DMSO, 2 mg/mL, room temperature): Y/— (Y: dissolved)
Solubility of compound A in solvent (dissolved or not) ([3]; DMSO, 4 mg/mL, about 50° C. while stirring): Y (Y: dissolved)
Solubility of compound A in solvent (dissolved or not) ([3]; DMSO, 4 mg/mL, room temperature): N (N: not dissolved)
Solubility of compound A in solvent (dissolved or not) ([3]; EtOAc, 1 mg/mL, about 50° C. while stirring): N/N (N: not dissolved)
Solubility of compound A in solvent (dissolved or not) ([3]; EtOAc, 1 mg/mL, room temperature): N/N (N: not dissolved)
Solubility of compound A in solvent (dissolved or not) ([3]; t-BuOH, 1 mg/mL, about 50° C. while stirring): N/N (N: not dissolved)
Solubility of compound A in solvent (dissolved or not) ([3]; t-BuOH, 1 mg/mL, room temperature): N/N (N: not dissolved)
